The Kd is the concentration at which binding is half-saturated.

Consider 13 molecules from PMC8372318, “Automated affinity selection for rapid discovery of peptide binders” (Chemical Science, 2021).

Square brackets hold non-standard residues; d marks the D form. Ends that are not written are not given here. Peptide text beside a SMILES is read from it. * marks the point of attachment. Biotin = O=C1N[C@H]2[C@H](CS[C@H]2CCCCC(=O)*)N1; Phe(4-CH2NH2) = NCc1ccc(C[C@H](N)C(=O)O)cc1; Arg(Me2s) = CN=C(NC)NCCC[C@H](N)C(=O)O; hArg = N=C(N)NCCCC[C@H](N)C(=O)O; Cha = N[C@@H](CC1CCCCC1)C(=O)O; Lys(Me) = CNCCCC[C@H](N)C(=O)O; Cba = N[C@@H](CC1CCC1)C(=O)O; PEG4 = NCCOCCOCCOCCOCCC(=O)O; Pip = O=C(O)[C@@H]1CCCCN1; Dab = NCC[C@H](N)C(=O)O

Experiment [1] deals with T1, recombinant menin protein (Homo sapiens, UniProt O00255).
T1 sequence (O00255 1-610): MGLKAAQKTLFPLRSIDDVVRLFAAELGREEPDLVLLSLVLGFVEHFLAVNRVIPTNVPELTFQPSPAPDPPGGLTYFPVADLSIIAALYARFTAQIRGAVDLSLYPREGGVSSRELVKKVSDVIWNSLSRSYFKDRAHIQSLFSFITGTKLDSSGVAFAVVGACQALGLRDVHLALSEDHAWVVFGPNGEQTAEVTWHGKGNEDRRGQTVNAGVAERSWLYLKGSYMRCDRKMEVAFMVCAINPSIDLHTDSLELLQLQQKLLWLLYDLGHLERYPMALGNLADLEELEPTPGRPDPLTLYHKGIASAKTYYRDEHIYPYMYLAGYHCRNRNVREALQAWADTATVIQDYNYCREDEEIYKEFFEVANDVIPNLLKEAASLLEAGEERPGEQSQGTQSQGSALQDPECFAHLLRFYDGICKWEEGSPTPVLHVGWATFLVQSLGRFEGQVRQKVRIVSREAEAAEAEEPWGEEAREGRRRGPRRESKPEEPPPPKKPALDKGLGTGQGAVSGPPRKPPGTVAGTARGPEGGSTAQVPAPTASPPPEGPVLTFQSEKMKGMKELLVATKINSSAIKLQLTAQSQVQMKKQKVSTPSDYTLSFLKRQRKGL
The experiment in a line: Bio-layer interferometry peptide-binding validation (Octet RED96). In general terms: Biolayer interferometry detects binding as a change in optical thickness at a sensor tip.

The target of a further experiment is human ACE2 (Homo sapiens, UniProt Q9BYF1). It counts as binding. As to conditions: highest tested peptide concentration 1000 nM; also biosensor alone.
The target in experiment [2] is T2, tMBM3 (truncated MLL menin binding motif) (Homo sapiens, also: additional C-terminal Arg).
T2 chain: RFPARPR
The experiment can be described thus: BLI.

Chain of human ACE2 (Q9BYF1 18-805): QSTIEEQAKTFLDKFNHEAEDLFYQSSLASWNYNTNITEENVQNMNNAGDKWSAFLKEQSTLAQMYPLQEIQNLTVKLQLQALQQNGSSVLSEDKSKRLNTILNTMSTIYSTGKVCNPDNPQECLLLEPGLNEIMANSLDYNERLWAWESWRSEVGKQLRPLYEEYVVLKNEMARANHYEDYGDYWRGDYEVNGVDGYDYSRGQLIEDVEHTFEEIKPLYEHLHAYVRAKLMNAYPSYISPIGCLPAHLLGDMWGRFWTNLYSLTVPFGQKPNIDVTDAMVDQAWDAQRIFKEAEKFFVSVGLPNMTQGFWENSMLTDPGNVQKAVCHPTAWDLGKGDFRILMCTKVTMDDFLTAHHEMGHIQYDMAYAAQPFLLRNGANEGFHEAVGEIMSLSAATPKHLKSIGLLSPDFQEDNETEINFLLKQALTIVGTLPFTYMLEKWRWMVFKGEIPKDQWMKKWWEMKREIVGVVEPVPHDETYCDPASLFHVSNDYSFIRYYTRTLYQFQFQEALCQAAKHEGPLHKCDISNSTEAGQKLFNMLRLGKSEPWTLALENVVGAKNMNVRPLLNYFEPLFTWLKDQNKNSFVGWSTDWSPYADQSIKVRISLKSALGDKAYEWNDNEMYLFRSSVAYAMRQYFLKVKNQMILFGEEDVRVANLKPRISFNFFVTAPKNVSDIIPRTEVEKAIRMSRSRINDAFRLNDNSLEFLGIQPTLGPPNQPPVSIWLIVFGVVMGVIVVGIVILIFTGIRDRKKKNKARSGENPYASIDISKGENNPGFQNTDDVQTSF

For the molecule `CNCCCC[C@H](NC(=O)[C@@H](NC(=O)[C@@H]1CCCCN1C(=O)[C@H](CC1CCCCC1)NC(=O)[C@H](Cc1c[nH]cn1)NC(=O)CCOCCOCCOCCOCCNC(=O)CCCC[C@@H]1SC[C@@H]2NC(=O)N[C@@H]21)C(C)C)C(=O)N1CCCC[C@H]1C(=O)N[C@@H](CCCNC(=N)N)C(N)=O` [hit 6-5] ({Biotin-PEG4}-H[Cha][Pip]V[Lys(Me)][Pip]R-NH2), the Kd in experiment [1] was determined as 110 nM.
`CNCCCC[C@H](NC(=O)[C@@H](NC(=O)[C@@H]1CCCCN1C(=O)[C@H](CC1CCCCC1)NC(=O)[C@H](CCCCN)NC(=O)CCOCCOCCOCCOCCNC(=O)CCCC[C@@H]1SC[C@@H]2NC(=O)N[C@@H]21)C(C)C)C(=O)N1CCCC[C@H]1C(=O)N[C@@H](CCCNC(=N)N)C(N)=O` [hit 6-4] ({Biotin-PEG4}-K[Cha][Pip]V[Lys(Me)][Pip]R-NH2): the Kd in experiment [1] was 87 nM.
Consider `C[C@H](NC(=O)[C@@H]1CCCN1C(=O)[C@H](Cc1ccccc1)NC(=O)[C@H](CCCNC(=N)N)NC(=O)CCOCCOCCOCCOCCNC(=O)CCCC[C@@H]1SC[C@@H]2NC(=O)N[C@@H]21)C(=O)N[C@@H](CCCNC(=N)N)C(=O)N1CCC[C@H]1C(=O)N[C@@H](CCCNC(=N)N)C(N)=O` [tMBM3] ({Biotin-PEG4}-RFPARPR-NH2), for which, in experiment [1], the “KD (nM), apparent dissociation constant” value came out at 3800 nM and the Kd is greater than 3800 nM.
Turning to `CC(C)[C@H](NC(=O)[C@@H]1CCCCN1C(=O)[C@H](CC1CCCCC1)NC(=O)[C@H](CCN)NC(=O)CCOCCOCCOCCOCCNC(=O)CCCC[C@@H]1SC[C@@H]2NC(=O)N[C@@H]21)C(=O)N[C@@H](CCCCNC(=N)N)C(=O)N1CCCC[C@H]1C(=O)N[C@@H](CCCNC(=N)N)C(N)=O` [hit 6-3] ({Biotin-PEG4}-[Dab][Cha][Pip]V[hArg][Pip]R-NH2), the Kd in experiment [1] was 34 nM.
The same measure, in the same setting: the value for `CC(C)[C@H](NC(=O)[C@@H]1CCCCN1C(=O)[C@H](CC1CCC1)NC(=O)[C@H](CCCNC(=N)N)NC(=O)CCOCCOCCOCCOCCNC(=O)CCCC[C@@H]1SC[C@@H]2NC(=O)N[C@@H]21)C(=O)N[C@@H](CCCNC(=N)N)C(=O)N1CCCC[C@H]1C(=O)N[C@@H](CCCNC(=N)N)C(N)=O` [hit 1] ({Biotin-PEG4}-R[Cba][Pip]VR[Pip]R-NH2) was 34 nM.
With YPYDVPDYAK [HA tag], on human ACE2, the “capture by control protein” value was “not captured”.
On to `C[C@H](NC(=O)[C@@H]1CCCN1C(=O)[C@H](Cc1ccccc1)NC(=O)[C@H](CCCNC(=N)N)NC(=O)[C@H](Cc1c[nH]c2ccccc12)NC(=O)[C@@H](N)CCCNC(=N)N)C(=O)N[C@@H](CCCNC(=N)N)C(=O)N1CCC[C@H]1C(N)=O` [MBM1, reference compound] (H-RWRFPARP-NH2), for which, in experiment [1], the Kd was 30 nM.
On the same count and under the same terms, the value for `CC(C)[C@H](NC(=O)[C@@H]1CCCCN1C(=O)[C@H](CC1CCCCC1)NC(=O)[C@H](CCN)NC(=O)CCOCCOCCOCCOCCNC(=O)CCCC[C@@H]1SC[C@@H]2NC(=O)N[C@@H]21)C(=O)N[C@@H](CCCNC(=N)N)C(=O)N1CCCC[C@H]1C(=O)N[C@@H](Cc1ccc(CN)cc1)C(N)=O` [hit 6-2] ({Biotin-PEG4}-[Dab][Cha][Pip]VR[Pip][Phe(4-CH2NH2)]-NH2) was 45 nM; that for `C[C@H](NC(=O)[C@@H]1CCCN1C(=O)[C@H](Cc1ccccc1)NC(=O)[C@H](CCCNC(=N)N)NC(=O)[C@H](Cc1c[nH]c2ccccc12)NC(=O)CCOCCOCCOCCOCCNC(=O)CCCC[C@@H]1SC[C@@H]2NC(=O)N[C@@H]21)C(=O)N[C@@H](CCCNC(=N)N)C(=O)N1CCC[C@H]1C(=O)N[C@@H](CCCNC(=N)N)C(N)=O` [tMBM2] ({Biotin-PEG4}-WRFPARPR-NH2) was 67 nM; that for `C[C@H](NC(=O)[C@@H]1CCCN1C(=O)[C@H](Cc1ccccc1)NC(=O)[C@H](CCCNC(=N)N)NC(=O)[C@H](Cc1c[nH]c2ccccc12)NC(=O)[C@@H](N)CCCNC(=N)N)C(=O)N[C@@H](CCCNC(=N)N)C(=O)N1CCC[C@H]1C(=O)N[C@@H](CCCNC(=N)N)C(N)=O` [tMBM1] (H-RWRFPARPR-NH2) was 14 nM.
In the case of `CC(C)[C@H](NC(=O)[C@@H]1CCCCN1C(=O)[C@H](CC1CCCCC1)NC(=O)[C@H](CCCNC(=N)N)NC(=O)CCOCCOCCOCCOCCNC(=O)CCCC[C@@H]1SC[C@@H]2NC(=O)N[C@@H]21)C(=O)N[C@@H](CCCNC(=N)N)C(=O)N1CCCC[C@H]1C(=O)N[C@@H](CCCNC(=N)N)C(N)=O` [hit 6] ({Biotin-PEG4}-R[Cha][Pip]VR[Pip]R-NH2), the equilibrium dissociation constant (Kd) in experiment [1] was found to be 40 nM.
With `CN=C(NC)NCCC[C@H](NC(=O)[C@@H](NC(=O)[C@@H]1CCCCN1C(=O)[C@H](CC1CCCCC1)NC(=O)[C@H](CCCCN)NC(=O)CCOCCOCCOCCOCCNC(=O)CCCC[C@@H]1SC[C@@H]2NC(=O)N[C@@H]21)C(C)C)C(=O)N1CCCC[C@H]1C(=O)N[C@@H](CCCNC(=N)N)C(N)=O` [hit 6-1] ({Biotin-PEG4}-K[Cha][Pip]V[Arg(Me2s)][Pip]R-NH2), the Kd in experiment [1] was 20 nM.

B1: menin (protein)
chain: T1 sequence (O00255 1-610)
B1: the Kd in experiment [2] is greater than 3800 nM.
